Measurements taken from patent publication US20120184536A1, “COMPOSITIONS COMPRISING SPECIFIC UGT INHIBITORS AND METHODS OF USE THEREOF” (The Board of Trustees of the University of Arkansas, priority 2009, published 2012).
Read-outs that look alike come from different tables or passages of the source.

Legend:
[1] = molecular target: T1, UGT1A10 (Homo sapiens, UniProt Q9HAW8); assay: Ki assays / kinetics and inhibition type, UGT1A10 (Example 1); conditions: for Inhibition Type (UDP-GlcUA): UDP-GlcUA varied
T1 sequence (Q9HAW8 26-530): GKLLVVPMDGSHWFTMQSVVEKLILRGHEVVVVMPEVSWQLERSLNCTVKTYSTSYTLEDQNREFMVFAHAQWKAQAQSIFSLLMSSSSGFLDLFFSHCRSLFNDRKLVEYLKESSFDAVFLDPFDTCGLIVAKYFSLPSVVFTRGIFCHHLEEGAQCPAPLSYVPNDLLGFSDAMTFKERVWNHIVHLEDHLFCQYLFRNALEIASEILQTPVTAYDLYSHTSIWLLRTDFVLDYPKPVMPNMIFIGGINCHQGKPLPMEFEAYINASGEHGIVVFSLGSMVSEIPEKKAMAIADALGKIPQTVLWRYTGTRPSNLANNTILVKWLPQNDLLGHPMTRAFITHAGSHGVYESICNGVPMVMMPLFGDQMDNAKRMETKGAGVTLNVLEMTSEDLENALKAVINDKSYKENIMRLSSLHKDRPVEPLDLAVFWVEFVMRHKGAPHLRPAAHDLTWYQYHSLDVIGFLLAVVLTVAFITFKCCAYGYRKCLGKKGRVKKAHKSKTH
Procedure: (§1) Recombinant UGT Isoform Incubations—Recombinant human UGT2B7 was produced in HEK239 cells as previously described (6). UGT1A10 was produced as a His-tagged protein in baculovirus-infected Sf9 insect cells as previously described (7, 8). […] For inhibition assays, recombinant UGT membrane protein was incubated in reaction buffer with substrate, inhibitor, and co-substrate as previously described (6, 9).
(§2) Ki assays—UGT2B7 or 1A10 were incubated with a range of at least four different concentrations of inhibitor using varying concentrations of substrate (Ki(substrate)) with a fixed saturating concentration of cosubstrate or with varying concentrations of co-substrate (Ki(UDP-GlcUA)) and a fixed saturating concentration of substrate (FIG. 4).
(§3) The results of these experiments were analyzed and apparent kinetic and inhibition parameters were determined using Prism 4 software (GraphPad, San Diego, Calif.) and DynaFit (BioKin, Watertown, Mass.). TLC and HPLC Analysis—For inhibition assays using all substrates other than 7-OH-warfarin, aliquots (60 μl) of each incubation were analyzed using thin layer chromatography (TLC) as previously described (3). For inhibition assays using 7-OH-warfarin as a substrate, samples were analyzed using HPLC as described previously (10). Primary standards for the 7-OH-warfarin glucuronide were not available; therefore, product concentrations were estimated using the external standard response for the 7-OH-warfarin substrate.

[2] = molecular target: T1, UGT1A10; type: biochemical; parameters: His; made in house; host or cells: baculovirus-infected Sf9 insect cells
[3] = molecular target: T1, UGT1A10; assay: Ki assays / kinetics and inhibition type, UGT1A10 (Example 2); conditions: UGT1A10, Example 2; for Inhibition Type (UDP-GlcUA): UDP-GlcUA varied
Procedure: Recombinant UGT Isoform Incubations—Recombinant human UGT1A10 and it mutants were produced in baculovirus-infected insect cells as previously described (6, 7). Synthesis of inhibitors was described previously (2). For inhibition assays, UGT recombinant membrane protein (5 μg) was incubated in reaction buffer ([…] Tris-HCl (pH 7.4)/5 mM MgCl2/5 mM saccharolactone) and 2% DMSO with substrate, inhibitor and co-substrate, UDP-GlcUA, in a total volume of 30 μl. Substrates were added in DMSO, and controls were run with each assay. No additional detergents or other activators were used in the incubations. Reactions were started by the addition of co-substrate and incubated at 37° C. (90 min for 8-hydroxywarfarin; 30 min for 4-MU; 30 min for E2). […] Reactions were stopped by addition of 40 μl of ethanol, and all incubations were performed in duplicate.
TLC Analysis—For inhibition assays using 4-MU, E2, and 8-OH warfarin as substrates, aliquots (60 μl) of each sample were analyzed using thin layer chromatography (TLC) as described previously (3).
Each sample was centrifuged at 14,000 rpm for 8 min to spin down the protein, and 60 μl of the supernatant was analyzed by HPLC as described previously (8).

[4] = molecular target: T1, UGT1A10; assay: IC50 assays, inhibition of UGT1A10 glucuronidation (Example 1); type: biochemical; parameters: His; made in house; host or cells: baculovirus-infected Sf9 insect cells
Text: Synthesis of inhibitors was described previously (2).

[5] = molecular target: T2, UGT2B7 (Homo sapiens, UniProt P16662); assay: Ki assays / kinetics and inhibition type, UGT2B7 (Example 1); conditions: UGT2B7
T2 sequence (P16662 24-529): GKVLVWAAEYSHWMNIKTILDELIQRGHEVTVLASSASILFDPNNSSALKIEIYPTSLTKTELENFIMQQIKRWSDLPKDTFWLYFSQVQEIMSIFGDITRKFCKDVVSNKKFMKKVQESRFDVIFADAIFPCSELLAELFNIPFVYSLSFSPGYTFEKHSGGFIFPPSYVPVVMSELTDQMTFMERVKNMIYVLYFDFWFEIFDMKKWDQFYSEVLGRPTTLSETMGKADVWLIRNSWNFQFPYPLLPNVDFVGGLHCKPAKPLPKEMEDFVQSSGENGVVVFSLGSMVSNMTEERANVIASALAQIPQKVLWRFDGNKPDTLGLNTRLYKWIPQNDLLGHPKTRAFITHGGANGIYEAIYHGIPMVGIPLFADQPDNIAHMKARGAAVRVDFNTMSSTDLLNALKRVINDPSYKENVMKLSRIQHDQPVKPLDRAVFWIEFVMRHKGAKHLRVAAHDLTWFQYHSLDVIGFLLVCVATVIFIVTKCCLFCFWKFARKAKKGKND
Procedure: as §1, §2, §3

[6] = molecular target: T2, UGT2B7; assay: IC50 assays, inhibition of UGT2B7 glucuronidation (Example 1)
Procedure: Recombinant UGT Isoform Incubations—Recombinant human UGT2B7 was produced in HEK239 cells as previously described (6). […] For inhibition assays, recombinant UGT membrane protein was incubated in reaction buffer with substrate, inhibitor, and co-substrate as previously described (6, 9).
IC50 assays—UGT2B7 or 1A10 were incubated with fixed concentrations of each substrate and co-substrate and increasing concentrations of inhibitor.
as §3

## CCCCCCCCCC(=O)NC(COC(=O)NS(=O)(=O)OCC1OC(n2ccc(=O)[nH]c2=O)C(O)C1O)Cc1ccccc1 (stereo not drawn) [PP55B]
[1]; 4-MU varied
  Inhibition Type (Substrate): noncompetitive and Non-
[1]; 7-OH warfarin varied
  Inhibition Type (Substrate): Competitive
[1]; 8-OH warfarin varied
  Inhibition Type (Substrate): Mixed
[1]; E2 varied
  Inhibition Type (Substrate): Mixed
[1]; 4-MU
  Inhibition Type (UDP-GlcUA): Competitive
[1]; 7-OH warfarin
  Inhibition Type (UDP-GlcUA): Competitive
[1]; 8-OH warfarin
  Inhibition Type (UDP-GlcUA): Competitive
[1]; E2
  Inhibition Type (UDP-GlcUA): Mixed
[1]; read-out: Kiapp (Substrate), 4-MU varied
  Ki: 96 µM
[1]; read-out: Kiapp (Substrate), 7-OH warfarin varied
  Ki: 8.5 µM
[1]; read-out: Kiapp (Substrate), 8-OH warfarin varied
  Ki: 27 µM
[1]; read-out: Kiapp (Substrate), E2 varied
  Ki: 200 µM
[1]; read-out: Kiapp (UDP-GlcUA), UDP-GlcUA varied, 4-MU
  Ki: 5.7 µM
[1]; read-out: Kiapp (UDP-GlcUA), UDP-GlcUA varied, 7-OH warfarin
  Ki: 4.1 µM
[1]; read-out: Kiapp (UDP-GlcUA), UDP-GlcUA varied, 8-OH warfarin
  Ki: 26 µM
[1]; read-out: Kiapp (UDP-GlcUA), UDP-GlcUA varied, E2
  Ki: 6.9 µM
[1]; read-out: Ki′app (Substrate), 8-OH warfarin varied
  Ki: 136 µM
[1]; read-out: Ki′app (Substrate), E2 varied
  Ki: 43 µM
[1]; read-out: Ki′app (UDP-GlcUA), UDP-GlcUA varied, E2
  Ki: 23 µM
[2]
  extent of inhibition of UGT1A10 activity toward 7-OH warfarin: did not fully inhibition
[3]; 4-MU varied
  Inhibition Type (Substrate): Competitive
[3]; 7-OH warfarin varied
  Inhibition Type (Substrate): Competitive
[3]; 8-OH warfarin varied
  Inhibition Type (Substrate): Competitive
[3]; 4-MU
  Inhibition Type (UDP-GlcUA): Competitive
[3]; 7-OH warfarin 3 mM
  Inhibition Type (UDP-GlcUA): Mixed
[3]; 8-OH warfarin
  Inhibition Type (UDP-GlcUA): Competitive
[3]; E2 1 mM
  Inhibition Type (UDP-GlcUA): Mixed
[4]; 4-MU, read-out: IC50 (Substrate)
  IC50: 8 ± 1 µM
[4]; 7-OH warfarin, read-out: IC50 (Substrate)
  IC50: 11 ± 2 µM
[4]; 8-OH warfarin, read-out: IC50 (Substrate)
  IC50: 35 ± 4 µM
[4]; E2, estimation, some activation at low concentrations, read-out: IC50 (Substrate)
  IC50: ~200 µM
[4]; co-substrate ~2 x Km, 4-MU in excess, read-out: IC50 (UDP-GlcUA)
  IC50: 15 ± 2 µM
[4]; co-substrate ~2 x Km, 7-OH warfarin in excess, read-out: IC50 (UDP-GlcUA)
  IC50: 4.9 ± 0.2 µM
[4]; co-substrate ~2 x Km, 8-OH warfarin in excess, read-out: IC50 (UDP-GlcUA)
  IC50: 14 ± 1 µM
[4]; co-substrate ~2 x Km, E2 in excess, read-out: IC50 (UDP-GlcUA)
  IC50: 39 ± 11 µM
[5]; UDP-GlcUA varied, androsterone
  Inhibition Type (UDP-GlcUA): Mixed
[5]; UDP-GlcUA varied, linoleic acid
  Inhibition Type (UDP-GlcUA): Competitive
[5]; UDP-GlcUA varied, p-nitrophenol
  Inhibition Type (UDP-GlcUA): Mixed
[5]; androsterone varied
  Inhibition Type (Substrate): Mixed
[5]; linoleic acid varied
  Inhibition Type (Substrate): Competitive
[5]; p-nitrophenol varied
  Inhibition Type (Substrate): Competitive
[5]; read-out: Kiapp (Substrate), linoleic acid varied
  Ki: 4.2 µM
[5]; read-out: Kiapp (Substrate), p-nitrophenol varied
  Ki: 7.6 µM
[5]; read-out: Kiapp (UDP-GlcUA), UDP-GlcUA varied, linoleic acid
  Ki: 2.5 µM
[5]; read-out: Kiapp (UDP-GlcUA), UDP-GlcUA varied, p-nitrophenol
  Ki: 2.1 µM
[5]; read-out: Ki′app (UDP-GlcUA), UDP-GlcUA varied, p-nitrophenol
  Ki: 85 µM
[6]; read-out: IC50 (Substrate), linoleic acid ~2 x Km, co-substrate in >5 fold excess
  IC50: 14 µM
[6]; read-out: IC50 (Substrate), p-nitrophenol (pNP) ~2 x Km, co-substrate in >5 fold excess
  IC50: 75 ± 10 µM
